Laboratory results reported in patent US9220758B2, “Calcitonin products and therapies for treating inflammatory or degenerative diseases” (UGP Therapeutics, Inc., priority 2010, dated 2015).

What was measured:
Type in all cases: cell-based
[1] = tested on: bovine articular cartilage explants; assay: Collagen (CTX-II) release from cytokine-stimulated bovine cartilage explants (CTX-II ELISA); conditions: for effect on collagen release (in words): Example 1, concentrations of Table 1; for highest ineffective concentration, Collagen Release: TNFa/IL-1a/OSM 10 ng/ml each, 3 week culture; for CTX-II release: stimulated control 135
Method: (§1) Full thickness cartilage was obtained from the metacarpophalangeal joints of approximately 6 months old calves (from a local slaughterhouse). Cartilage punches (4 mm) were taken from the cartilage and placed in culture dishes with culture medium (DMEM+FCS, penicillin, streptomycin and ascorbic acid). Cartilage explants were weighed and explants between about 5 and about 15 mg were divided into a 96-well culture plate with 1 explant per well and 200 μL culture medium. Cartilage degradation was induced by addition of TNFα, IL-1α, and OSM at 10 ng/mL each to the culture medium. Test agents were then added at different concentrations. During three weeks of culture, the culture medium and the test compounds were refreshed once weekly. In addition fresh calcitonin was added twice weekly to the cartilage explants. Culture medium and cartilage explants were stored at −20° C. until analysis. Each culture condition was cultured in four-fold and the entire experiment was performed on cartilage from three different paws. The different culture conditions are listed below in Table 1.
(§2) Outcome parameters included (i) CTX-II in the culture medium as a measure of collagen degradation, (ii) GAG in the culture medium and cartilage explant as a measure of proteoglycan degradation, (iii) prostaglandin E2 (PGE2) measured by ELISA in the culture medium as a measure of inflammation, and (iv) general MMP activity in the culture medium. Not all outcome parameters were determined for each of the culture conditions.
Collagen release was measured as CTX-II release per mg cartilage. Collagen was measured in the pooled medium using the CTXII ELISA assay (Pre-clinical Cartilaps®, Nordic Bioscience).
as §1, with “the culture medium to induce cartilage degradation. Test agents” for “the culture medium. Test agents”, “in Table 3.” for “in Table 1.”

[2] = tested on: bovine articular cartilage explants; assay: PGE2 release from cytokine-stimulated bovine cartilage explants (ELISA); conditions: for highest ineffective concentration, PGE2 release: TNFa/IL-1a/OSM 10 ng/ml each, 3 week culture; for normalized PGE2 release: stimulated control = 100%
Method: as §1, §2
The prostaglandin E2 release was measured as PGE2 release per mg cartilage. PGE2 was determined in the pooled medium using a PGE2 ELISA from R&D Systems. This value was normalized against the control condition of each donor to correct for donor variation. The basal release of unstimulated cartilage is 11% (p<0.0 1) when the stimulated (IL-1a, TNFα and OSM) control is set to 100%.
as §1, with “the culture medium to induce cartilage degradation. Test agents” for “the culture medium. Test agents”, “in Table 3.” for “in Table 1.”

[3] = tested on: bovine articular cartilage explants; assay: Proteoglycan (GAG) release from cytokine-stimulated bovine cartilage explants (Blyscan assay); conditions: for effect on proteoglycan release (in words): Example 1, concentrations of Table 1; for highest ineffective concentration, Proteoglycan release: TNFa/IL-1a/OSM 10 ng/ml each, 3 week culture; for normalized GAG (proteoglycan) release: stimulated control = 100%
Method: as §1, §2
The proteoglycan release is measured as GAG release per mg cartilage. Proteoglycan (GAG) content was determined in the pooled medium and explants using the Blyscan® colorimetric assay (Biocolor, Belfast, UK). This value is normalized against the control condition of each donor to correct for donor variation. The basal release of unstimulated cartilage is 36% (p<0.05) when the stimulated (IL-1a, TNFα and OSM) control is set to 100%.
as §1, with “the culture medium to induce cartilage degradation. Test agents” for “the culture medium. Test agents”, “in Table 3.” for “in Table 1.”

[4] = tested on: bovine articular cartilage explants; assay: General MMP activity in culture medium of cytokine-stimulated bovine cartilage explants (fluorogenic substrate); conditions: stimulated control 23
Method: as §2
The MMP activity was measured as MMP activity per mg cartilage.
as §1, with “the culture medium to induce cartilage degradation. Test agents” for “the culture medium. Test agents”, “in Table 3.” for “in Table 1.”

Molecule: CNC(=O)[C@H](Cc1c[nH]c2ccccc12)NC(=O)[C@@H](CC(=O)NO)CC(C)C [Galardin]
- effect on collagen release (in words) [1]: inhibited
- highest ineffective concentration, Collagen Release [1]: <0.1 µM
- highest ineffective concentration, PGE2 release [2]: >10 µM
- effect on proteoglycan release (in words) [3]: slightly inhibited
- highest ineffective concentration, Proteoglycan release [3]: 1 to 10 µM
- normalized GAG (proteoglycan) release ([3]; compound alone at 10 μM): 72%

Molecule: anakinra [Kineret ® (anakinra)]
- effect on collagen release (in words) [1]: inhibited all outcome parameters
- effect on PGE2 release (in words) ([2]; Example 1, concentrations of Table 1): inhibited all outcome parameters
- highest ineffective concentration, PGE2 release [2]: <0.1 µg/mL
- effect on proteoglycan release (in words) [3]: inhibited all outcome parameters
- highest ineffective concentration, Proteoglycan release [3]: <0.1 µg/mL

Molecule: Cc1ccc(-c2cc(C(F)(F)F)nn2-c2ccc(S(N)(=O)=O)cc2)cc1 [Celebrex ® (celecoxib), celecoxib]
- highest ineffective concentration, Collagen Release [1]: >10 µM
- highest ineffective concentration, PGE2 release [2]: <0.01 µM
- highest ineffective concentration, Proteoglycan release [3]: 0.1 to 1 µM

Molecule: Calcitonin
- MMP activity ([4]; compound alone at 10 nM): 15 RFU/sec per mg cartilage
- highest ineffective concentration, Collagen Release [1]: 0.0003 to 0.001 µM
- CTX-II release ([1]; compound alone at 0.5 nM): 133 ng/mg cartilage
- highest ineffective concentration, PGE2 release [2]: >0.01 µM
- normalized PGE2 release ([2]; compound alone at 10 nM): 117%
- highest ineffective concentration, Proteoglycan release [3]: >0.01 µM
- normalized GAG (proteoglycan) release ([3]; compound alone at 10 nM): 87%

Molecule: C[C@H]1c2cccc(O)c2C(=O)C2=C(O)[C@]3(O)C(=O)C(C(N)=O)=C(O)[C@@H](N(C)C)[C@@H]3[C@@H](O)[C@@H]21 [Doxycycline]
- MMP activity ([4]; compound alone at 10 μM): 14 RFU/sec per mg cartilage
- highest ineffective concentration, Collagen Release [1]: 10 to 100 µM
- CTX-II release ([1]; compound alone at 10 μM): 125 ng/mg cartilage
- highest ineffective concentration, PGE2 release [2]: 1 to 10 µM
- normalized PGE2 release ([2]; compound alone at 10 μM): 111%
- highest ineffective concentration, Proteoglycan release [3]: >100 µM
- normalized GAG (proteoglycan) release ([3]; compound alone at 100 μM): 80%

Molecule: CNC(=O)[C@H](Cc1ccccc1)NC(=O)[C@H](CC(C)C)[C@H](CSc1cccs1)C(=O)NO [BB-94]
- MMP activity ([4]; compound alone at 10 nM): 13 RFU/sec per mg cartilage
- MMP activity ([4]; compound alone at 100 nM): 4 RFU/sec per mg cartilage
- CTX-II release ([1]; compound alone at 10 nM): 137 ng/mg cartilage
- CTX-II release ([1]; compound alone at 100 nM): 27 ng/mg cartilage
- normalized GAG (proteoglycan) release ([3]; compound alone at 10 nM): 83%
- normalized GAG (proteoglycan) release ([3]; compound alone at 100 nM): 80%

Molecule: C[C@@H]1C[C@H]2[C@@H]3CCC4=CC(=O)C=C[C@]4(C)[C@@]3(F)[C@@H](O)C[C@]2(C)[C@@]1(O)C(=O)CO [Dexamethasone]
- highest ineffective concentration, Collagen Release [1]: <0.01 µM
- highest ineffective concentration, PGE2 release [2]: <0.01 µM
- highest ineffective concentration, Proteoglycan release [3]: <0.01 µM
